# Test results as given in patent US20160244390A1, “Etherified Tri-Butylphenol Alkoxylates, Process For Their Preparation And Their Use In Crop Protection Agents” (CLARIANT INTERNATIONAL LTD, priority 2013, published 2016).
# Tests used:
# apple cuticles = experiment: Percentage penetration of benzyladenine through apple cuticles with and without TBPEM-6; assay type: in vitro ADME; conditions: 0.2 g/l benzyladenine in acetone/mains water, no additive
# Experimental: The method described in the literature (Baur et al., 1997, Pesticide Science 51, 131-152) can be used for determining these properties.
# The penetration of the growth promoter benzyladenine (benzylamonopurin) through leaf cuticles was measured at an active ingredient concentration of 0.2 g/l benzyladenine in acetone/mains water, with and without TBPEM-6, at different practically relevant concentrations, 5 hours and 24 hours after application.
# [1] = Dynamic surface tension by the bubble pressure method (wetting agent effect); assay type: physicochemical; conditions: for Dynamic surface tension: 22° C.
# Experimental: The dynamic surface tension was determined by the bubble pressure method (BP2100 tensiometer, Krúss) on a timescale relevant for spray application. The dynamic surface tension was measured for solutions of TBPEM-6 and TBPEM-8 in mains water at room temperature (22° C.) and at the typical spray mixture concentrations of 0.3, 1, and 3 g/l.
compound,measurement,setting,value
"c1ccc(CNc2ncnc3nc[nH]c23)cc1 [Benzyladenine, benzyladenine]",Percentage penetration of benzyladenine,apple cuticles; 5 h,2.0%
same,Percentage penetration of benzyladenine,apple cuticles; 24 h,3.7%
tributylphenol ethoxylate(6) [Sapogenat T 060],Dynamic surface tension,"[1]; 0.3 g/L in mains water, 20 ms",69.9 mN/m
same,Dynamic surface tension,"[1]; 0.3 g/L in mains water, 100 ms",64.6 mN/m
same,Dynamic surface tension,"[1]; 0.3 g/L in mains water, 200 ms",61.4 mN/m
same,Dynamic surface tension,"[1]; 1 g/L in mains water, 20 ms",67.3 mN/m
same,Dynamic surface tension,"[1]; 1 g/L in mains water, 100 ms",58.6 mN/m
same,Dynamic surface tension,"[1]; 1 g/L in mains water, 200 ms",53.2 mN/m
same,Dynamic surface tension,"[1]; 3 g/L in mains water, 20 ms",63.4 mN/m
same,Dynamic surface tension,"[1]; 3 g/L in mains water, 100 ms",51.8 mN/m
same,Dynamic surface tension,"[1]; 3 g/L in mains water, 200 ms",46 mN/m
"2,4,6-tributylphenoxy-ethoxy(6) methyl ether [TBPEM-6]",Dynamic surface tension,"[1]; 0.3 g/L in mains water, 20 ms",70.3 mN/m
same,Dynamic surface tension,"[1]; 0.3 g/L in mains water, 100 ms",65.0 mN/m
same,Dynamic surface tension,"[1]; 0.3 g/L in mains water, 200 ms",62.8 mN/m
same,Dynamic surface tension,"[1]; 1 g/L in mains water, 20 ms",62.9 mN/m
same,Dynamic surface tension,"[1]; 1 g/L in mains water, 100 ms",54.1 mN/m
same,Dynamic surface tension,"[1]; 1 g/L in mains water, 200 ms",52.5 mN/m
same,Dynamic surface tension,"[1]; 3 g/L in mains water, 20 ms",55.5 mN/m
same,Dynamic surface tension,"[1]; 3 g/L in mains water, 100 ms",42.9 mN/m
same,Dynamic surface tension,"[1]; 3 g/L in mains water, 200 ms",41.8 mN/m
same,Suitability as wetting agent from dynamic surface tension,[1]; spray application timescale,excellent suitability as a rapid wetting agent
